This passage reports GI50 and TGI results from PubChem BioAssay (NCI).

Test systems include HL-60(TB) leukemia; HOP-62 NSCLC; HT29 colon; IGROV1 ovarian; LOX IMVI melanoma; OVCAR-4 ovarian; OVCAR-8 ovarian; SF-295 CNS; SK-MEL-2 melanoma; MDA-N.
Common to all, as to test: inhibition of tumour cell growth, NCI panel, 48 h

Molecules are shown by their SMILES.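 A five-concentration, 48-hour dose response in 96-well plates underlies each endpoint, interpolated linearly between surrounding concentrations. GI50 marks 50% less growth. TGI denotes the concentration required for complete inhibition of growth.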 Bounds are passed on as bounds.

As for `S=C(Nc1ccc(Cl)cc1)Nc1ccc(Cl)cc1` (tested in a mixture with another compound), the GI50 in the test with HL-60(TB) leukemia was 1.98 µM; in the test on HOP-62 NSCLC, 2.75 µM; in the test with HT29 colon, 1.96 µM; with IGROV1 ovarian, 3.26 µM; with LOX IMVI melanoma it was 1.71 µM; with OVCAR-4 ovarian, 2.92 µM. Further, the GI50 in the test on OVCAR-8 ovarian was 3.26 µM; in the test on SF-295 CNS it was 1.75 µM; in the test with SK-MEL-2 melanoma it was 2.34 µM. The TGI in the test on HL-60(TB) leukemia is 4.98 µM; with HOP-62 NSCLC it was 7.2 µM; with HT29 colon, 4.88 µM; in the test on IGROV1 ovarian, greater than 100 µM; in the test with LOX IMVI melanoma, 3.57 µM; in the test with OVCAR-4 ovarian it was greater than 100 µM. Moreover, the results for the TGI in the test with OVCAR-8 ovarian, in the test on SF-295 CNS and in the test on SK-MEL-2 melanoma were greater than 100 µM, 4.38 µM and 5.04 µM, respectively.

With `CC1(C)COC(/C=C/C2=NC(C)(C)CO2)=N1`, the TGI with HL-60(TB) leukemia turned out to be 49.4 µM; in the test with HOP-62 NSCLC, 55.2 µM; in the test with HT29 colon, 98.4 µM; in the test on IGROV1 ovarian it was 50.6 µM; in the test on LOX IMVI melanoma, 16.7 µM; in the test on MDA-N it was 48.7 µM. For the same compound, the TGI with OVCAR-4 ovarian is 99.5 µM; in the test with OVCAR-8 ovarian, 51.6 µM; in the test on SF-295 CNS, greater than 100 µM; in the test on SK-MEL-2 melanoma, 82.9 µM.

Turning to `O=C(/C=C/c1ccc(O)cc1)NCCc1ccc(O)cc1`, the TGI in the test on HL-60(TB) leukemia, in the test with HOP-62 NSCLC, with HT29 colon, in the test with IGROV1 ovarian, in the test on LOX IMVI melanoma and in the test on MDA-N was greater than 12.5 µM in each case. In addition, the TGI with OVCAR-4 ovarian, with OVCAR-8 ovarian, in the test with SF-295 CNS and in the test with SK-MEL-2 melanoma was greater than 12.5 µM throughout.

For `C[N+]1(C)CCC(C#N)(c2ccccc2)CC1`, the TGI in the test with HL-60(TB) leukemia, with HOP-62 NSCLC, with HT29 colon, with IGROV1 ovarian, in the test with MDA-N and in the test on OVCAR-4 ovarian was greater than 100 µM throughout. The TGI in the test with OVCAR-8 ovarian and with SF-295 CNS was greater than 100 µM throughout.

As for `CC(O)C(O)C(N)CC=O` (stereo not drawn), the TGI in the test on HL-60(TB) leukemia, with HOP-62 NSCLC, in the test with HT29 colon, in the test with IGROV1 ovarian, in the test with LOX IMVI melanoma and in the test with OVCAR-4 ovarian was greater than 500 µM in each case. The TGI in the test on OVCAR-8 ovarian, in the test on SF-295 CNS and in the test on SK-MEL-2 melanoma was greater than 500 µM each time.

For `CCOC(=O)n1cncc1CC(NC(=O)Cc1c(C(=O)C=C(C)C)[nH]c2ccccc12)C(=O)OC` (stereo not drawn), the TGI in the test with HL-60(TB) leukemia was 44 µM; in the test on HT29 colon, 66.6 µM; in the test on IGROV1 ovarian, 37.5 µM; in the test on LOX IMVI melanoma, 35.6 µM; in the test with MDA-N, 84.3 µM; with OVCAR-4 ovarian, 37.9 µM. Also, the values for the TGI in the test with OVCAR-8 ovarian, in the test with SF-295 CNS and in the test with SK-MEL-2 melanoma were 40.2 µM, 35.5 µM and 34.2 µM, respectively.

For `O=C1/C(=C\c2ccc(-c3ccc(Cl)cc3Cl)o2)SC2N=C(COc3ccc(Cl)cc3)NN12` (stereo not drawn), the TGI with HL-60(TB) leukemia, in the test with HOP-62 NSCLC, in the test with HT29 colon, in the test with IGROV1 ovarian, in the test on LOX IMVI melanoma and in the test with MDA-N was greater than 100 µM in each case. In addition, the TGI in the test on OVCAR-4 ovarian, in the test with OVCAR-8 ovarian, with SF-295 CNS and with SK-MEL-2 melanoma was greater than 100 µM each time.

Consider `COC(=O)C1=CC[C@@H]2C(C(=O)O)=CO[C@@H](OC3OC(CO)C(O)C(O)C3O)[C@H]12` (stereo partly drawn), for which the TGI in the test on HL-60(TB) leukemia, in the test on HOP-62 NSCLC, in the test with HT29 colon, in the test on IGROV1 ovarian, in the test on LOX IMVI melanoma and in the test with OVCAR-4 ovarian was greater than 300 µM in each case. The TGI with OVCAR-8 ovarian was greater than 300 µM; in the test on SF-295 CNS, greater than 193 µM; with SK-MEL-2 melanoma it was greater than 300 µM.

Consider `CC(C)C(N=Cc1ccccc1O)C(=O)O` (stereo not drawn), for which the TGI in the test with HL-60(TB) leukemia, in the test with HOP-62 NSCLC, in the test with HT29 colon, with IGROV1 ovarian, in the test on LOX IMVI melanoma and in the test on MDA-N was greater than 100 µM each time. Besides, the TGI in the test on OVCAR-4 ovarian, in the test on OVCAR-8 ovarian, with SF-295 CNS and in the test on SK-MEL-2 melanoma was greater than 100 µM each time.

For the compound `O=S(O)c1cc(Cl)cc(Cl)c1O`, the TGI in the test with HL-60(TB) leukemia, with HOP-62 NSCLC, in the test on HT29 colon, in the test with LOX IMVI melanoma, with OVCAR-4 ovarian and with SK-MEL-2 melanoma was greater than 100 µM in each case.

With `N#C/C=C1\C=CC(O)C(O)C1OC1OC(CO)C(O)C(O)C1O` (stereo not drawn), the TGI in the test with HL-60(TB) leukemia, in the test on HOP-62 NSCLC, in the test on HT29 colon, in the test on IGROV1 ovarian, with LOX IMVI melanoma and in the test on MDA-N was greater than 100 µM throughout. The TGI in the test on OVCAR-4 ovarian, with OVCAR-8 ovarian, in the test on SF-295 CNS and in the test on SK-MEL-2 melanoma was greater than 100 µM each time.

With `CC(=O)OCC1OC(O[C@@H]2c3c(O)c4c(c(O)c3C3=C(NN(c5ccc([N+](=O)[O-])cc5[N+](=O)[O-])[Se]3=O)[C@@]2(C)O)C(=O)c2ccccc2C4=O)C(OC(C)=O)C(OC(C)=O)C1OC(C)=O` (stereo partly drawn), the TGI in the test on HOP-62 NSCLC was 0.714 µM; in the test on HT29 colon, 0.57 µM; in the test with IGROV1 ovarian, 1.09 µM; in the test on LOX IMVI melanoma it was 0.319 µM; in the test with MDA-N, 0.753 µM; with OVCAR-4 ovarian, 0.634 µM. The TGI was found to be 0.562 µM in the test on OVCAR-8 ovarian, 1 µM in the test on SF-295 CNS and 0.615 µM in the test on SK-MEL-2 melanoma.
